Source: the Deep4Chem optical property database

Experiment: solvent given as SMILES
[1] = in O=P(c1ccccc1)(c1ccccc1)c1ccccc1Oc1ccccc1P(=O)(c1ccccc1)c1ccccc1

CC(=O)[B-]1(C(C)=O)OC(c2ccccc2)=CC(c2ccc3ccccc3c2)=[O+]1
emission maximum (in CC#N): 510 nm | emission maximum (in ClC(Cl)(Cl)Cl): 419 nm

Cc1cc(C)c(C2=C3C=CC(c4ccc5c(ccc6ccccc65)c4)=[N+]3[B-](F)(F)n3c2ccc3-c2ccc3c(ccc4ccccc43)c2)c(C)c1
emission maximum (in ClC(Cl)Cl): 624 nm

CC1=CC(C)=[N+]2C1=C(c1ccc(O)cc1)c1c(C)cc(/C=C/C=C3/N(C)c4ccccc4C3(C)C)n1[B-]2(F)F
emission maximum (in O): 708 nm

CC[N+]1(CC)CN2C(=N1)C(C(=O)O)=Cc1cc(Cl)ccc12
emission maximum (in O): 472 nm

c1ccc(C2(c3ccccc3)c3ccc4ccc5ccccc5c4c3-c3c2ccc2ccc4ccccc4c32)cc1
emission maximum (in ClCCl): 421 nm

COc1ccc(/C=C(\C#N)c2nc(-c3ccc(Cl)cc3)cs2)cc1
emission maximum (in CC#N): 472 nm

Cc1nc2cc3c4c(cccc4c2o1)C(=O)OC3=O
emission maximum (in CCO): 412 nm

O=c1cc(C(F)(F)F)c2cc3c4c(c2o1)CCCN4CCC3
emission maximum (in C1CCCCC1): 455 nm | emission maximum (in CC#N): 521 nm | emission maximum (in CCO): 531 nm | emission maximum (in CCOC(C)=O): 501 nm | emission maximum (in OCC(O)CO): 546 nm

O=C(O)C1=C(C(=O)O)C2=C[C@H]3c4ccccc4[C@]2([Se]1)c1ccccc13
emission maximum (in ClCCl): 507 nm

O=C(O)CCCCCn1c2ccc(Br)cc2c(=O)c2cc(S(=O)(=O)O)ccc21
emission maximum (in O): 435 nm

CN1C(=CC2=C([O-])C(=CC3=[N+](C)c4ccccc4C3(C)C)C2=O)C(C)(C)c2ccccc21
emission maximum (in ClC(Cl)Cl): 643 nm

N#Cc1ccc(N)c(/C=C/C(F)(F)F)c1
emission maximum (in C1CCOC1): 409 nm

O=c1ccc2ccccc2o1
emission maximum (in O): 385 nm

F[B-]1(F)n2c(ccc2N2CCOCC2)C(c2ccccc2)=C2C=CC(N3CCOCC3)=[N+]21
emission maximum (in CC#N): 600 nm | emission maximum (in CCCCCC): 595 nm | emission maximum (in CCOC(C)=O): 597 nm | emission maximum (in CO): 594 nm | emission maximum (in ClCCl): 598 nm

CCCCCCCCCCCCOc1cc2cc(N(C)C)ccc2cc1C=O
emission maximum (in C1CCOC1): 448 nm | emission maximum (in CC#N): 485 nm | emission maximum (in CCCCCC): 415 nm | emission maximum (in CCO): 521 nm | emission maximum (in CCOC(C)=O): 450 nm | emission maximum (in CS(C)=O): 494 nm | emission maximum (in ClCCl): 469 nm | emission maximum (in O): 504 nm

COc1cc(-c2nc3c4cccnc4c4ncccc4c3[nH]2)c(OC)cc1/C=C/c1nc2ccccc2[nH]1
emission maximum (in C1CCOC1): 443 nm | emission maximum (in CC#N): 457 nm | emission maximum (in CO): 461 nm | emission maximum (in ClCCl): 452 nm

CC(C)[Si]1(C(C)C)c2cc(C=O)ccc2-c2ccc(N(C)C)cc21
emission maximum (in C1CCCCC1): 414 nm | emission maximum (in CC#N): 528 nm | emission maximum (in CCO): 565 nm | emission maximum (in CCOCC): 449 nm | emission maximum (in CS(C)=O): 541 nm | emission maximum (in ClCCl): 501 nm | emission maximum (in c1ccccc1): 450 nm

CCCCCCc1ccsc1-c1ccc(-c2sc(C(=O)O)cc2CCCCCC)s1
emission maximum (in CC(C)=O): 468 nm | emission maximum (in CCCCCC): 458 nm | emission maximum (in CCO): 451 nm | emission maximum (in CO): 451 nm | emission maximum (in ClCCl): 479 nm | emission maximum (in O): 490 nm

c1ccc(N(c2ccccc2)c2ccc(-c3cnc(-c4ccc(N(c5ccccc5)c5ccccc5)cc4)s3)cc2)cc1
emission maximum (in CO): 488 nm

CCCCC1(c2ccccc2)Nc2c(-c3ccc(N(c4ccccc4)c4ccccc4)cc3)ccc(-c3ccc(N(c4ccccc4)c4ccccc4)cc3)c2N=C1c1ccccc1 (stereo not given)
emission maximum (in C1CCOC1): 554 nm | emission maximum (in CC#N): 567 nm | emission maximum (in CCCCCC): 521 nm | emission maximum (in CN(C)C=O): 578 nm | emission maximum (in Cc1ccccc1): 533 nm | emission maximum (in ClC(Cl)Cl): 547 nm

COc1ccc(-c2nc(C)cc(-c3ccc(-n4c5ccccc5c5ccccc54)cc3)n2)cc1
emission maximum (in C1CCOC1): 418 nm | emission maximum (in CN(C)C=O): 453 nm | emission maximum (in Cc1ccccc1): 390 nm | emission maximum (in ClC(Cl)Cl): 421 nm

CC1(C)CC(NCc2ccc3ccc4cccc5ccc2c3c45)CC(C)(C)N1[O]
emission maximum (in C1CCCCC1): 375 nm | emission maximum (in CC#N): 376 nm | emission maximum (in CO): 375 nm | emission maximum (in ClC(Cl)Cl): 376 nm

CCOCCOCCOC(=O)/C=C/C1=CC2=C(c3c(C)cc(C)cc3C)c3cccn3[B-](F)(F)[N+]2=C1
emission maximum (in ClCCl): 567 nm

C[Si](C)(C)c1ccc(-c2ccc(-c3ccc(-c4ccc(-c5ccc([Si](C)(C)C)cc5)cc4)c4nsnc34)cc2)cc1
emission maximum (in C1CCOC1): 516 nm

CCn1c2ccccc2c2ccc(-c3ccc(OC)cc3)cc21
emission maximum (in C1CCCCC1): 383 nm

COc1cc2c3sc4ccccc4c3c3cncnc3c2c(OC)c1OC
emission maximum (in ClCCl): 426 nm

Cc1cc2nc3[nH]c(=O)n(C)c(=O)c3nc2cc1C
emission maximum (in CC#N): 436 nm

COc1ccc(/C=C/C2=[O+][B-](F)(F)OC(/C=C/c3ccc(OC)cc3)=C2c2cccc(OC)c2)cc1
emission maximum (in ClCCl): 556 nm

Cc1cc(C)c(B2c3cc(C(C)(C)C)ccc3-c3c(-c4ccccc4)ccc4cc(C(C)(C)C)cc2c34)c(C)c1
emission maximum (in C1CCCCC1): 470 nm

COc1ccc(C2=C(c3ccc(OC)cc3)[Si](c3ccccc3)(c3ccccc3)c3ccccc32)cc1
emission maximum (in C1CCOC1): 457 nm

Cc1ccc(N(c2ccc(C)cc2)c2ccc3c(c2)c2cc(N(c4ccc(C)cc4)c4ccc(C)cc4)ccc2n3-c2ccc(-c3nc4cccc5c4n3-c3ccccc3C5(C)C)cc2)cc1
emission maximum (in Cc1ccccc1): 496 nm | emission maximum [1]: 491 nm

COc1cc2c(cc1-c1ccc(Cl)cc1)Cc1c3c(c4c(c1-2)-c1cc(OC)c(-c2ccc(Cl)cc2)cc1C4)C(=O)N(CCC(C)C)C3=O
emission maximum (in C1CCOC1): 466 nm

CC1(C)c2ccccc2N(c2ccc3c(c2)c2ccccc2c2nc4ccccc4nc32)c2ccccc21
emission maximum (in Cc1ccccc1): 541 nm | emission maximum (in c1cc(-c2cccc(-n3c4ccccc4c4ccccc43)c2)cc(-n2c3ccccc3c3ccccc32)c1): 549 nm

N#Cc1ccc(-c2nc(-c3ccccc3)c3ccccn23)cc1
emission maximum (in C1CCCCC1): 444 nm | emission maximum (in CC#N): 453 nm | emission maximum (in CO): 487 nm | emission maximum (in ClCCl): 477 nm | emission maximum (in O): 470 nm

CC1=C(/C=C/c2ccccc2)C(C)=[N+]2C1=C(c1ccccc1)c1c(C)c(/C=C/c3ccccc3)c(C)n1[B-]2(F)F
emission maximum (in ClC(Cl)Cl): 633 nm

Nc1cccc2cccc(N)c12
emission maximum (in CC#N): 413 nm | emission maximum (in CO): 427 nm | emission maximum (in CS(C)=O): 411 nm | emission maximum (in Cc1ccccc1): 403 nm

CC1=CC(C)=[N+]2C1=C(c1ccccc1)c1c(C)cc(/C=C/c3ccc(N(C)C)cc3)n1[B-]2(F)F
emission maximum (in CCOCC): 638 nm

CCC1=C(C)C(=O)n2c1cc1[nH]c(C(=O)OC(C)(C)C)c(C)c1c2=O
emission maximum (in C1CCCCC1): 443 nm | emission maximum (in CO): 505 nm | emission maximum (in CS(C)=O): 483 nm | emission maximum (in ClC(Cl)Cl): 453 nm | emission maximum (in c1ccccc1): 443 nm

Cc1cc(C)c(B(c2cc(-c3ccc(C(F)(F)F)cc3)sc2-c2sc(-c3ccc(C(F)(F)F)cc3)cc2P(=O)(c2ccccc2)c2ccccc2)c2c(C)cc(C)cc2C)c(C)c1
emission maximum (in CO): 548 nm

F[B-]1(F)OC(c2ccc(C(F)(F)F)cc2)=Cc2cc(Cl)nc[n+]21
emission maximum (in C1CCOC1): 428 nm | emission maximum (in CC#N): 425 nm | emission maximum (in CCCCCC): 421 nm | emission maximum (in Cc1ccccc1): 434 nm | emission maximum (in ClC(Cl)Cl): 426 nm | emission maximum (in ClCCl): 426 nm

C/C=C/c1ccc(OC)cc1
emission maximum (in CC#N): 330 nm | emission maximum (in CCCCCC): 328 nm

Cc1cc2c3ccccc3oc2c2c1c1ccccc1n2-c1ccc(C#N)cc1
emission maximum (in CCOC(C)=O): 379 nm | emission maximum (in CS(C)=O): 440 nm | emission maximum (in ClCCl): 420 nm

c1ccc(-c2nc(-c3ccccc3)nc(-c3ccc(N4c5ccccc5C(c5ccccc5)(c5ccccc5)c5ccccc54)cc3)n2)cc1
emission maximum [1]: 472.98 nm

O=C1c2ccc(N(c3ccccc3)c3ccccc3)cc2C(=O)c2ccc(N(c3ccccc3)c3ccccc3)cc21
emission maximum (in Cc1ccccc1): 601 nm | emission maximum (in c1ccc2c(c1)c1ccccc1n2-c1ccc(-c2ccc(-n3c4ccccc4c4ccccc43)cc2)cc1): 593 nm

CCC1(CC)c2ccccc2-c2c1c1c(c3c2C(CC)(CC)c2cc(-c4cccs4)ccc2-3)C(CC)(CC)c2cc(N(c3ccccc3)c3ccccc3)ccc2-1
emission maximum (in C1CCOC1): 422 nm

c1ccc(-c2nnc(-c3ccc(N4c5ccccc5N(c5ccccc5)c5ccccc54)cc3)n2-c2ccccc2)cc1
emission maximum (in Cc1ccccc1): 528 nm | emission maximum (in c1cc(-n2c3ccccc3c3ccccc32)cc(-n2c3ccccc3c3ccccc32)c1): 520 nm

CC(C)(C)c1ccc2c(c1)c1cc(C(C)(C)C)ccc1n2-c1cc(N2c3ccccc3C(c3ccccc3)(c3ccccc3)c3ccccc32)cc(-n2c3ccc(C(C)(C)C)cc3c3cc(C(C)(C)C)ccc32)c1C#N
emission maximum (in Cc1ccccc1): 458 nm

c1ccc(-c2cnc3nn4ccccc4c3n2)cc1
emission maximum (in C1CCOC1): 449 nm

CC1=CC(/C=C/c2ccc(N(C)C)cc2)=[N+]2C1=C(c1ccc(I)cc1)c1c(C)cc(/C=C/c3ccc(N(C)C)cc3)n1[B-]2(F)F
emission maximum (in CC#N): 768 nm

CCCCCCCCCCCCN1C(=O)c2c(c3ccc4cc(-c5ccccc5)c(OC)cc4c3c3c2ccc2cc(-c4ccccc4)c(OC)cc23)C1=O
emission maximum (in ClCCl): 526 nm

C[Si](C)(C)[Si](C)(C)c1c2ccccc2cc2ccccc12
emission maximum (in C1CCCCC1): 429 nm | emission maximum (in CC#N): 430 nm

CC[n+]1c(C=C2C(=O)C(C=C3N(C)c4ccccc4C3(C)C)=C2[O-])[se]c2ccccc21
emission maximum (in CO): 661 nm | emission maximum (in ClC(Cl)Cl): 675 nm

COC(=O)c1cc(=O)n(C)c2cc(-c3cccc(OC)c3)sc12
emission maximum (in CC#N): 463 nm | emission maximum (in ClCCl): 464 nm

COc1ccc(N2c3ccc4ccccc4c3-c3c4ccccc4cc[n+]3[B-]2(c2ccccc2)c2ccccc2)cc1
emission maximum (in Cc1ccccc1): 641 nm

CCCCCOc1cc2oc(=O)c3c4occc4c4ccc5cccc6c(c1)c2c3c4c56
emission maximum (in C1CCOC1): 433 nm

Cc1c(C)c(N2c3ccccc3Oc3ccccc32)c(C)c(C)c1B(c1c(C)c(C)c(N2c3ccccc3Oc3ccccc32)c(C)c1C)c1c(C)c(C)c(N2c3ccccc3Oc3ccccc32)c(C)c1C
emission maximum (in CC(C)(C)c1ccc(-n2c3ccc([Si](c4ccccc4)(c4ccccc4)c4ccccc4)cc3c3cc([Si](c4ccccc4)(c4ccccc4)c4ccccc4)ccc32)cc1): 509 nm

CC1(C)c2ccccc2-n2c(-c3ccc(N4c5ccccc5Oc5ccccc54)cc3)nc3cccc1c32
emission maximum (in Cc1ccccc1): 502 nm | emission maximum [1]: 485 nm
